Values after ≈ are worked out from the molar mass of the structure shown. “Also recorded” adds a separate entry of the source. Like-named read-outs stand apart in the source and are kept apart here.
How the values were obtained:
[1] = mouse, in vivo
[2] = tested on: aminoglycoside 6'-acetyltransferases; assay: Inactivation by aminoglycoside 6'-acetyltransferases; type: biochemical
in vivo = conditions: mouse, iv
99 = assay: Minimum inhibitory concentration, serial dilution method; type: cell-based; conditions: 18 h, read-out: Minimum Inhibitory Concentration
Experimental: (§1) The minimum inhibitory concentrations (mcg/ml) of kanamycin C, 3'-deoxykanamycin C and 3',4'-dideoxykanamycin C against various microorganisms were determened according to serial dilution method using nutrient agar medium at 37° C., the estimation being effected after 18 hours incubation.

[3] = tested on: Klebsiella pneumoniae 22 No. 3038; assay: as above; type: cell-based
Experimental: as §1

[4] = tested on: Staphylococcus aureus FDA 209P; assay: as above; type: cell-based; conditions: FDA209P, read-out: Minimum Inhibitory Concentration
Experimental: as §1

[5] = tested on: Escherichia coli LA 290 R56; assay: as above; type: cell-based; conditions: LA290R56, 18 h, read-out: Minimum Inhibitory Concentration
Experimental: as §1

[6] = tested on: Escherichia coli JR 66/W677; assay: as above; type: cell-based
Experimental: as §1

[7] = tested on: Pseudomonas aeruginosa A3; assay: as above; type: cell-based; conditions: nutrient agar, 37° C., 18 hours, P. aeruginosa A3
Experimental: as §1

Escherichia coli K-12 = assay: as above; type: cell-based
Experimental: as §1

[8] = tested on: Pseudomonas aeruginosa GN 315; assay: as above; type: cell-based
Experimental: as §1

[9] = tested on: Escherichia coli LA 290 R64; assay: as above; type: cell-based; conditions: LA290R64, 18 h, read-out: Minimum Inhibitory Concentration
Experimental: as §1

[10] = tested on: Pseudomonas aeruginosa H 11; assay: as above; type: cell-based
Experimental: as §1

[11] = tested on: Escherichia coli K-12 ML 1629; assay: as above; type: cell-based
Experimental: as §1

[12] = tested on: Mycobacterium smegmatis ATCC 607; assay: as above; type: cell-based; conditions: Mycolicibacterium smegmatis, read-out: Minimum Inhibitory Concentration
Experimental: as §1

[13] = tested on: Escherichia coli LA 290 R55; assay: as above; type: cell-based; conditions: LA290R55, 18 h, read-out: Minimum Inhibitory Concentration
Experimental: as §1

[14] = tested on: Klebsiella pneumoniae PCI 602; assay: as above; type: cell-based
Experimental: as §1

[15] = tested on: Escherichia coli K-12 ML 1410; assay: as above; type: cell-based; conditions: K12ML1410, nutrient agar, 37° C., 18 hours, E. coli K-12 ML 1410
Experimental: as §1

[16] = tested on: Escherichia coli K-12 ML 1630; assay: as above; type: cell-based; conditions: K12ML1630, nutrient agar, 37° C., 18 hours, E. coli K-12 ML 1630
Experimental: as §1

Escherichia coli W 677 = assay: as above; type: cell-based
Experimental: as §1

Escherichia coli NIHJ = assay: as above; type: cell-based; conditions: read-out: Minimum Inhibitory Concentration
Experimental: as §1

Escherichia coli K-12 R5 = assay: as above; type: cell-based; conditions: K12R5, 18 h, read-out: Minimum Inhibitory Concentration
Experimental: as §1

[17] = tested on: Pseudomonas aeruginosa TI-13; assay: as above; type: cell-based
Experimental: as §1

[18] = tested on: Pseudomonas aeruginosa No. 12; assay: as above; type: cell-based
Experimental: as §1

[19] = tested on: Escherichia coli K-12 ML 1410 R81; assay: as above; type: cell-based; conditions: 18 h, read-out: Minimum Inhibitory Concentration
Experimental: as §1

bacterial strains = assay: Antibacterial activity in general (summary of Table 1); type: cell-based; conditions: for antibacterial activity compared with 3'-deoxykanamycin B and 3',4'-dideoxykanamycin B: against some bacteria strains
Experimental: as §1

[20] = tested on: aminoglycoside 3'-phosphotransferases; assay: Inactivation by aminoglycoside 3'-phosphotransferases; type: biochemical
[21] = tested on: resistant strains which produce 6'-acetyltransferases, for example Pseudomonas aeruginosa GN315; conditions: known deoxykanamycin B derivatives; cited from earlier work
[22] = tested on: aminoglycoside 6'-acetyltransferases; conditions: known kanamycins; cited from earlier work
[23] = tested on: resistant strains which produce 6'-acetyltransferases, for example Pseudomonas aeruginosa GN315; assay: Activity against resistant strains producing 6'-acetyltransferases; type: cell-based; conditions: compared with kanamycin B derivatives
[24] = 22NO.3038, 18 h, read-out: Minimum Inhibitory Concentration
[25] = JR66/W677, 18 h, read-out: Minimum Inhibitory Concentration
[26] = K12, 18 h, read-out: Minimum Inhibitory Concentration
[27] = K12ML1629, 18 h, read-out: Minimum Inhibitory Concentration
[28] = ATCC607, nutrient agar, 37° C., 18 hours, M. smegmatis ATCC 607
[29] = PCI602, 18 h, read-out: Minimum Inhibitory Concentration
[30] = W677, 18 h, read-out: Minimum Inhibitory Concentration
[31] = TI13, 18 h, read-out: Minimum Inhibitory Concentration
[32] = NO.12, 18 h, read-out: Minimum Inhibitory Concentration
[33] = GN315, nutrient agar, 37° C., 18 hours, P. aeruginosa GN 315, read-out: Minimum Inhibitory Concentration

SMILES | acute toxicity compared with deoxy derivatives of kanamycin B [1] | inactivation by 6'-acetyltransferases [2] | LD50 (in vivo) | MIC 99 | MIC [3, 24] | MIC ([4]; 18 h) | MIC [5] | MIC [6, 25] | MIC [7] | MIC (Escherichia coli K-12; [26]) | MIC [9] | MIC [11, 27] | MIC [12, 28] | MIC [13] | MIC [14, 29] | MIC [15] | MIC [16] | MIC (Escherichia coli W 677; [30]) | MIC (Escherichia coli NIHJ; 18 h) | MIC [19] | other results
NC1CCC(CO)OC1OC1C(N)CC(N)C(OC2OC(CO)C(O)C(N)C2O)C1O (stereo not shown) [3',4'-Dideoxykanamycin C, 3',4'-dideoxykanamycin C] | remarkably lower toxicity | not inactivated | > 300 mg/kg | > 100 µg/mL | > 100 µg/mL | 6.25 µg/mL (≈ 13.8 µM) | 100 µg/mL (≈ 221 µM) | > 100 µg/mL | 100 µg/mL (≈ 221 µM) | 25 µg/mL (≈ 55.2 µM) | 100 µg/mL (≈ 221 µM) | 12.5 µg/mL (≈ 27.6 µM) | 50 µg/mL (≈ 110 µM) | > 100 µg/mL | 25 µg/mL (≈ 55.2 µM) | 12.5 µg/mL (≈ 27.6 µM) | 12.5 µg/mL (≈ 27.6 µM) | 6.25 µg/mL (≈ 13.8 µM) | 12.5 µg/mL (≈ 27.6 µM) | 50 µg/mL (≈ 110 µM) | MIC ([8]; GN315, 18 h, read-out: Minimum Inhibitory Concentration): 100 µg/mL (≈ 221 µM); MIC ([10]; H11, 18 h, read-out: Minimum Inhibitory Concentration): 100 µg/mL (≈ 221 µM); MIC (Escherichia coli K-12 R5): 12.5 µg/mL (≈ 27.6 µM); MIC [17, 31]: 100 µg/mL (≈ 221 µM); MIC [18, 32]: 100 µg/mL (≈ 221 µM); growth inhibition of bacterial strains (bacterial strains): inhibits the growth of many kinds of bacterial strains; antibacterial activity compared with 3'-deoxykanamycin B and 3',4'-dideoxykanamycin B (bacterial strains): inferior; inactivation by 3'-phosphotransferases [20]: not inactivated
NCC1CCC(N)C(OC2C(N)CC(N)C(OC3OC(CO)C(O)C(N)C3O)C2O)O1 (stereo not shown) [DKB, 3',4'-dideoxykanamycin B, reference compound] | – | – | – | 3.13 µg/mL (≈ 6.93 µM) | – | – | 12.5 µg/mL (≈ 27.7 µM) | – | 1.56 µg/mL (≈ 3.45 µM) | – | 6.25 µg/mL (≈ 13.8 µM) | – | 0.39 µg/mL (≈ 0.864 µM) | 50 µg/mL (≈ 111 µM) | – | 1.56 µg/mL (≈ 3.45 µM) | 0.78 µg/mL (≈ 1.73 µM) | – | – | 1.56 µg/mL (≈ 3.45 µM) | MIC ([3]; nutrient agar, 37° C., 18 hours, K. pneumoniae 22 No. 3038, read-out: Minimum Inhibitory Concentration): 100 µg/mL (≈ 221 µM); MIC ([4]; nutrient agar, 37° C., 18 hours, S. aureus FDA 209P): < 0.2 µg/mL; MIC ([6]; JR66/W677, nutrient agar, 37° C., 18 hours, E. coli JR 66/W677, read-out: Minimum Inhibitory Concentration): 50 µg/mL (≈ 111 µM); MIC (Escherichia coli K-12; K12, nutrient agar, 37° C., 18 hours, E. coli K-12, read-out: Minimum Inhibitory Concentration): 0.78 µg/mL (≈ 1.73 µM); MIC [8, 33]: > 100 µg/mL; MIC ([11]; K12ML1629, nutrient agar, 37° C., 18 hours, E. coli K-12 ML 1629, read-out: Minimum Inhibitory Concentration): 0.78 µg/mL (≈ 1.73 µM); MIC ([14]; PCI602, nutrient agar, 37° C., 18 hours, K. pneumoniae PCI 602, read-out: Minimum Inhibitory Concentration): 0.39 µg/mL (≈ 0.864 µM); MIC (Escherichia coli W 677; W677, nutrient agar, 37° C., 18 hours, E. coli W 677, read-out: Minimum Inhibitory Concentration): 0.2 µg/mL (≈ 0.443 µM); MIC (Escherichia coli NIHJ; nutrient agar, 37° C., 18 hours, E. coli NIHJ): 0.39 µg/mL (≈ 0.864 µM); MIC [17, 31]: 1.56 µg/mL (≈ 3.45 µM); MIC ([18]; nutrient agar, 37° C., 18 hours, P. aeruginosa No. 12, read-out: Minimum Inhibitory Concentration): 0.78 µg/mL (≈ 1.73 µM); growth inhibition of resistant bacteria producing 6'-acetyltransferases [21]: not able to inhibit the growth; inactivation (acetylation of the 6'-amino group) by 6'-acetyltransferases [22]: can be inactivated; also recorded: acetylate the 6'-amino group
NC1CC(O)C(CO)OC1OC1C(N)CC(N)C(OC2OC(CO)C(O)C(N)C2O)C1O (stereo not shown) [3'-Deoxykanamycin C, 3'-deoxykanamycin C] | remarkably lower toxicity | not inactivated | > 300 mg/kg | 100 µg/mL (≈ 213 µM) | > 100 µg/mL | 3.13 µg/mL (≈ 6.68 µM) | 100 µg/mL (≈ 213 µM) | > 100 µg/mL | 12.5 µg/mL (≈ 26.7 µM) | 12.5 µg/mL (≈ 26.7 µM) | 50 µg/mL (≈ 107 µM) | 12.5 µg/mL (≈ 26.7 µM) | – | > 100 µg/mL | 6.25 µg/mL (≈ 13.3 µM) | 12.5 µg/mL (≈ 26.7 µM) | 12.5 µg/mL (≈ 26.7 µM) | 6.25 µg/mL (≈ 13.3 µM) | 12.5 µg/mL (≈ 26.7 µM) | 50 µg/mL (≈ 107 µM) | MIC [8, 33]: 50 µg/mL (≈ 107 µM); MIC ([10]; H11, nutrient agar, 37° C., 18 hours, P. aeruginosa H 11, read-out: Minimum Inhibitory Concentration): 50 µg/mL (≈ 107 µM); MIC ([12]; ATCC607, 18 h): 25 µg/mL (≈ 53.4 µM); MIC (Escherichia coli K-12 R5): 12.5 µg/mL (≈ 26.7 µM); MIC ([17]; TI13, nutrient agar, 37° C., 18 hours, P. aeruginosa TI-13, read-out: Minimum Inhibitory Concentration): 50 µg/mL (≈ 107 µM); MIC [18, 32]: 100 µg/mL (≈ 213 µM); activity against resistant strains which produce 6'-acetyltransferases [23]: more active than kanamycin B derivatives; growth inhibition of bacterial strains (bacterial strains): inhibits the growth of many kinds of bacterial strains; antibacterial activity compared with 3'-deoxykanamycin B and 3',4'-dideoxykanamycin B (bacterial strains): inferior; inactivation by 3'-phosphotransferases [20]: not inactivated
